For assay [1], the target named is T1, catalytic domain of human Bub1 (amino acids 704-1085) (Homo sapiens, UniProt O43683).
T1 construct: catalytic domain of human Bub1 (amino acids 704-1085); His6 (N); made in house; host or cells: Hi5 insect cells
As to the kind of experiment: Bub1 kinase assay (TR-FRET). It is filed as biochemical. The protocol:
To this end, 100-fold concentrated compound solutions (in DMSO) were previously prepared by serial dilution (1:3.4) of 2 mM stocks in a clear low volume 384-well source microtiter plate (Greiner Bio-One, Frickenhausen, Germany), from which 50 nL of compounds were transferred into a black low volume test microtiter plate from the same supplier. […] The resulting mixture (5 μL final volume) was incubated at 22° C. during 60 min., and the reaction was stopped by the addition of 5 μL of an aqueous EDTA-solution (50 mM EDTA, in 100 mM HEPES pH 7.5 and 0.2% (w/v) bovine serum albumin) which also contained the TR-FRET detection reagents (0.2 μM streptavidin-XL665 [Cisbio Bioassays, Codolet, France] and 1 nM anti-phosho-Serine antibody [Merck Millipore, cat. #35-001] and 0.4 nM LANCE EU-W1024 labeled anti-mouse IgG antibody [Perkin-Elmer, product no. AD0077, alternatively a Terbium-cryptate-labeled anti-mouse IgG antibody from Cisbio Bioassays can be used]). The stopped reaction mixture was further incubated 1 h at 22° C. in order to allow the formation of complexes between peptides and detection reagents. Subsequently, the amount of product was evaluated by measurement of the resonance energy transfer from the Eu-chelate-antibody complex recognizing the Phosphoserine residue to the streptavidin-XL665 bound to the biotin moiety of the peptide. […] IC50 values were calculated by fitting the normalized inhibition data to a 4-parameter logistic equation (Minimum, Maximum, IC50, Hill; Y=Max+(Min−Max)/(1+(X/IC50)Hill)).
In general terms: In TR-FRET formats the signal depends on donor and acceptor labels being close together.

For assay [2], the system named is HeLa human cervical cancer cell line. As to the kind of experiment: Proliferation assay (HeLa cell line). As to conditions: Homo sapiens, 96 h, read-out: Biological Assay 2: Proliferation assay (HeLa cell line) median IC50, HeLa, 4 days incubation, crystal violet.
Experimental: Cultivated tumor cells (cells were ordered from ATCC) were plated at a density of 3000 cells/well in a 96-well multititer plate in 200 μL of growth medium supplemented 10% fetal calf serum. After 24 hours, the cells of one plate (zero-point plate) were stained with crystal violet (see below), while the medium of the other plates was replaced by fresh culture medium (200 μL), to which the test substances were added in various concentrations (0 μM, as well as in the range of 0.001-10 μM; the final concentration of the solvent dimethyl sulfoxide was 0.5%). The cells were incubated for 4 days in the presence of test substances. Cell proliferation was determined by staining the cells with crystal violet: the cells were fixed by adding 20 μL/measuring point of an 11% glutaric aldehyde solution for 15 minutes at room temperature. After three washing cycles of the fixed cells with water, the plates were dried at room temperature. The cells were stained by adding 100 μL/measuring point of a 0.1% crystal violet solution (pH 3.0). After three washing cycles of the stained cells with water, the plates were dried at room temperature. The dye was dissolved by adding 100 μL/measuring point of a 10% acetic acid solution. Absorption was determined by photometry at a wavelength of 595 nm. The change of cell number, in percent, was calculated by normalization of the measured values to the absorption values of the zero-point plate (=0%) and the absorption of the untreated (0 μm) cells (=100%). The IC50 values were determined by means of a 4 parameter fit.
The test system of assay [3] is HeLa human cervical tumor cells. As to the kind of experiment: Proliferation Assay (HeLa+Paclitaxel). As to conditions: read-out: Biological Assay 3.0: Proliferation Assay (HeLa + Paclitaxel):, 3 nM paclitaxel, 92 hours with test substance.
Experimental: Proliferation Assay (HeLa+Paclitaxel):
Cultivated HeLa human cervical tumor cells (DSMZ ACC-57) were plated at a density of 3000 cells/well in a 96-well multititer plate in 200 μL of growth medium supplemented 10% fetal calf serum. After 24 hours, the cells of one plate (zero-point plate) were stained with crystal violet (see below). The medium of the other plates was supplemented with 3 nM of paclitaxel (Sigma-Aldrich) and the cells were incubated at 37° C. After 4 hours the test substances were added in various concentrations (0 μM, as well as in the range of 0.001-10 μM; the final concentration of the solvent dimethyl sulfoxide was adjusted to 0.1%) using a Hewlett-Packard HP D300 Digital Dispenser. The cells were incubated for another 92 hours at 37° C. in the presence of test substances. Cell proliferation was determined by staining the cells with crystal violet: the cells were fixed by adding 20 μL/measuring point of an 11% glutaric aldehyde solution for 15 minutes at room temperature. After three washing cycles of the fixed cells with water, the plates were dried at room temperature. The cells were stained by adding 100 μL/measuring point of a 0.1% crystal violet solution (pH 3.0). After three washing cycles of the stained cells with water, the plates were dried at room temperature. The dye was dissolved by adding 100 μL/measuring point of a 10% acetic acid solution. Absorption was determined by photometry at a wavelength of 595 nm. The change of cell number, in percent, was calculated by normalization of the measured values to the absorption values of the zero-point plate (=0%) and the absorption of the untreated (0 μm) cells (=100%). The IC50 values were determined by means of a 4 parameter fit.

Molecules are shown by their SMILES.

T1 sequence (O43683 704-1085): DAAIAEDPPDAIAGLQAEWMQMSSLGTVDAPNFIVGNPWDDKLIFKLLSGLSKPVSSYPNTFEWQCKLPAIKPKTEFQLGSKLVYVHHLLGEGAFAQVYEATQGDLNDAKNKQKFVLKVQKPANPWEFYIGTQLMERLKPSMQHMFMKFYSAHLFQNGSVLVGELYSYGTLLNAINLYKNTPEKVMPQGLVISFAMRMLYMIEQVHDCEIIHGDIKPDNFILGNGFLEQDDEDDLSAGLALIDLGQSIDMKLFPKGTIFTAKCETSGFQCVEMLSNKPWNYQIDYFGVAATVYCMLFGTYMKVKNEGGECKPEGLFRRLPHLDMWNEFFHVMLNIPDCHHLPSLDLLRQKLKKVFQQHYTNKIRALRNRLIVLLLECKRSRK

In the case of `CCOc1cc(F)c(Cn2nc(-c3ncc(OC[C@H](C)NCC(F)(F)F)c(Nc4ccnc(C)n4)n3)c3ccccc32)c(F)c1` [Example 2-4-1, 2-[1-(4-ethoxy-2,6-difluorobenzyl)-1H-indazol-3-yl]-N-(2-methylpyrimidin-4-yl)-5-({(2S)-2-[(2,2,2-trifluoroethyl)amino]propyl}oxy)pyrimidin-4-amine], the IC50 in assay [1] was 11 nM; in assay [2], 880 nM; in assay [3], 140 nM.

These data come from patent publication US20170275269A1, “BENZYL SUBSTITUTED INDAZOLES AS BUB1 KINASE INHIBITORS” (Bayer Pharma Aktiengesellschaft, priority 2014, published 2017).
